Source: PubChem BioAssay AID258 (DTP/NCI, 2004)
Several values for one entry are separate records, joined by “and”; a condition that tells them apart may be missing. Identical values can stand only once. Inconclusive results and toxic doses are left out. Starred links: 1 amine or outer side, 2 acyl side, 3 side chain; linkers in the order of their positions; H or OH if unused. Positions of bridges follow the written chain, without caps; N, C: chain ends. Non-standard residues stand in square brackets, D forms with d. Residues, ends and D or L forms follow the SMILES beside them. Chains are numbered I, II in the order given. Actinocin(9to1) = Cc1c2oc3c(C)ccc(C(=O)[*:1])c3nc-2c(C(=O)[*:2])c(N)c1=O; aThr = C[C@H](O)[C@H](N)C(=O)O; NMeV = CN[C@H](C(=O)O)C(C)C; Sar = CNCC(=O)O

Tested on: CD2F1 mice, L1210 leukemia sc, survival T/C
Assay: NCI In Vivo Anticancer Drug Screen. Data for tumor model L1210 Leukemia (subcutaneous) in CD2F1 (CDF1) mice
Conditions: endpoint: median survival time, higher = longer survival
In short: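 Antitumor activity is scored in tumor-bearing mice by comparing survival or tumor size of treated animals against vehicle-treated controls, reported as T/C.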

O=C1c2ccccc2C(=O)c2c(NCCNCCO)ccc(NCCNCCO)c21
T/C (dose: 0.5 mg/kg/injection, schedule: Q01DX009 (ip), vehicle: saline with Tween-80): 97 % of control
T/C (dose: 0.5 mg/kg/injection, schedule: Q01DX009 (ip), vehicle: saline): 97 % of control
T/C (dose: 1.0 mg/kg/injection, schedule: Q01DX009 (ip), vehicle: saline with Tween-80): 98 % of control
T/C (dose: 1.0 mg/kg/injection, schedule: Q01DX009 (ip), vehicle: saline): 102 % of control and 106 % of control and 86 % of control
T/C (dose: 2.0 mg/kg/injection, schedule: Q01DX009 (ip), vehicle: saline with Tween-80): 101 % of control
T/C (dose: 2.0 mg/kg/injection, schedule: Q01DX009 (ip), vehicle: saline): 102 % of control and 108 % of control
T/C (dose: 4.0 mg/kg/injection, schedule: Q01DX009 (ip), vehicle: Klucel (hydroxypropylcellulose) (HPC)): 98 % of control
T/C (dose: 4.0 mg/kg/injection, schedule: Q01DX009 (ip), vehicle: saline): 105 % of control and 97 % of control
T/C (dose: 4.0 mg/kg/injection, schedule: Q01DX009 (ip), vehicle: water): 101 % of control
T/C (dose: 4.0 mg/kg/injection, schedule: Q01DX009 (oral), vehicle: saline): 94 % of control
T/C (dose: 4.0 mg/kg/injection, schedule: Q01DX009 (sc), vehicle: Klucel (hydroxypropylcellulose) (HPC)): 114 % of control and 124 % of control
T/C (dose: 8.0 mg/kg/injection, schedule: Q01DX005 (oral), vehicle: Klucel (hydroxypropylcellulose) (HPC)): 99 % of control
T/C (dose: 8.0 mg/kg/injection, schedule: Q01DX005 (oral), vehicle: water): 96 % of control
T/C (dose: 8.0 mg/kg/injection, schedule: Q01DX009 (ip), vehicle: Klucel (hydroxypropylcellulose) (HPC)): 122 % of control and 112 % of control
T/C (dose: 8.0 mg/kg/injection, schedule: Q01DX009 (ip), vehicle: saline): 93 % of control
T/C (dose: 8.0 mg/kg/injection, schedule: Q01DX009 (ip), vehicle: water): 104 % of control
T/C (dose: 8.0 mg/kg/injection, schedule: Q01DX009 (oral), vehicle: saline): 96 % of control
T/C (dose: 8.0 mg/kg/injection, schedule: Q01DX009 (sc), vehicle: water): 156 % of control
T/C (dose: 16.0 mg/kg/injection, schedule: Q01DX005 (oral), vehicle: Klucel (hydroxypropylcellulose) (HPC)): 106 % of control
T/C (dose: 16.0 mg/kg/injection, schedule: Q01DX005 (oral), vehicle: water): 96 % of control
T/C (dose: 16.0 mg/kg/injection, schedule: Q01DX009 (ip), vehicle: Klucel (hydroxypropylcellulose) (HPC)): 108 % of control
T/C (dose: 16.0 mg/kg/injection, schedule: Q01DX009 (ip), vehicle: water): 102 % of control
T/C (dose: 16.0 mg/kg/injection, schedule: Q01DX009 (oral), vehicle: saline): 96 % of control
T/C (dose: 16.0 mg/kg/injection, schedule: Q01DX009 (sc), vehicle: Klucel (hydroxypropylcellulose) (HPC)): 177 % of control and 122 % of control and 243 % of control
T/C (dose: 16.0 mg/kg/injection, schedule: Q01DX009 (sc), vehicle: water): 578 % of control
T/C (dose: 32.0 mg/kg/injection, schedule: Q01DX005 (oral), vehicle: Klucel (hydroxypropylcellulose) (HPC)): 103 % of control
T/C (dose: 32.0 mg/kg/injection, schedule: Q01DX005 (oral), vehicle: water): 99 % of control
T/C (dose: 32.0 mg/kg/injection, schedule: Q01DX009 (ip), vehicle: Klucel (hydroxypropylcellulose) (HPC)): 120 % of control and 119 % of control
T/C (dose: 32.0 mg/kg/injection, schedule: Q01DX009 (ip), vehicle: saline): 104 % of control
T/C (dose: 32.0 mg/kg/injection, schedule: Q01DX009 (ip), vehicle: water): 111 % of control
T/C (dose: 32.0 mg/kg/injection, schedule: Q01DX009 (oral), vehicle: saline): 94 % of control
T/C (dose: 32.0 mg/kg/injection, schedule: Q01DX009 (sc), vehicle: Klucel (hydroxypropylcellulose) (HPC)): 200 % of control and 225 % of control
T/C (dose: 32.0 mg/kg/injection, schedule: Q01DX009 (sc), vehicle: water): 243 % of control
T/C (dose: 64.0 mg/kg/injection, schedule: Q01DX005 (oral), vehicle: Klucel (hydroxypropylcellulose) (HPC)): 93 % of control
T/C (dose: 64.0 mg/kg/injection, schedule: Q01DX005 (oral), vehicle: water): 103 % of control
T/C (dose: 64.0 mg/kg/injection, schedule: Q01DX009 (ip), vehicle: saline): 108 % of control and 89 % of control
T/C (dose: 64.0 mg/kg/injection, schedule: Q01DX009 (oral), vehicle: saline): 97 % of control
T/C (dose: 64.0 mg/kg/injection, schedule: Q01DX009 (sc), vehicle: Klucel (hydroxypropylcellulose) (HPC)): 92 % of control
T/C (dose: 128.0 mg/kg/injection, schedule: Q01DX005 (oral), vehicle: Klucel (hydroxypropylcellulose) (HPC)): 97 % of control
T/C (dose: 128.0 mg/kg/injection, schedule: Q01DX005 (oral), vehicle: water): 99 % of control
T/C (dose: 128.0 mg/kg/injection, schedule: Q01DX009 (ip), vehicle: Klucel (hydroxypropylcellulose) (HPC)): 122 % of control
T/C (dose: 128.0 mg/kg/injection, schedule: Q01DX009 (ip), vehicle: saline): 101 % of control
T/C (dose: 128.0 mg/kg/injection, schedule: Q01DX009 (ip), vehicle: water): 114 % of control
T/C (dose: 128.0 mg/kg/injection, schedule: Q01DX009 (oral), vehicle: saline): 102 % of control
T/C (dose: 128.0 mg/kg/injection, schedule: Q01DX009 (sc), vehicle: Klucel (hydroxypropylcellulose) (HPC)): 211 % of control
T/C (dose: 256.0 mg/kg/injection, schedule: Q01DX005 (oral), vehicle: Klucel (hydroxypropylcellulose) (HPC)): 98 % of control
T/C (dose: 256.0 mg/kg/injection, schedule: Q01DX009 (oral), vehicle: saline): 101 % of control
T/C (dose: 512.0 mg/kg/injection, schedule: Q01DX009 (oral), vehicle: saline): 93 % of control

Cc1c2oc3c(C)ccc(C(=O)N[C@@H]4C(=O)N[C@H](C(C)C)C(=O)N5CCC[C@H]5C(=O)N(C)CC(=O)N(C)[C@@H](C(C)C)C(=O)O[C@H]4C)c3nc-2c(C(=O)N[C@@H]2C(=O)N[C@H](C(C)C)C(=O)N3CCC[C@H]3C(=O)N(C)CC(=O)N(C)[C@@H](C(C)C)C(=O)O[C@H]2C)c(N)c1=O (I: [aThr][dV]P[Sar][NMeV] / II: [aThr][dV]P[Sar][NMeV]; ester I:1-I:C, II:1-II:C; linker I:N-II:N via Actinocin(9to1))
T/C (dose: 0.05 mg/kg/injection, schedule: Q01DX009 (sc), vehicle: saline): 101 % of control
T/C (dose: 0.05 mg/kg/injection, schedule: Q01DX Z (sc), vehicle: other): 108 % of control and 100 % of control
T/C (dose: 0.05 mg/kg/injection, schedule: Q01DX Z (sc), vehicle: saline): 100 % of control
T/C (dose: 0.08 mg/kg/injection, schedule: Q01DX Z (sc), vehicle: other): 112 % of control
T/C (dose: 0.08 mg/kg/injection, schedule: Q07DX Z (sc), vehicle: other): 100 % of control
T/C (dose: 0.09 mg/kg/injection, schedule: Q01DX Z (sc), vehicle: other): 116 % of control
T/C (dose: 0.1 mg/kg/injection, schedule: Q01DX009 (sc), vehicle: saline): 113 % of control
T/C (dose: 0.13 mg/kg/injection, schedule: Q01DX009 (sc), vehicle: saline): 122 % of control
T/C (dose: 0.14 mg/kg/injection, schedule: Q07DX Z (sc), vehicle: other): 112 % of control
T/C (dose: 0.15 mg/kg/injection, schedule: Q01DX009 (sc), vehicle: saline): 120 % of control
T/C (dose: 0.2 mg/kg/injection, schedule: Q01DX009 (sc), vehicle: saline): 105 % of control and 113 % of control
T/C (dose: 0.23 mg/kg/injection, schedule: Q07DX Z (sc), vehicle: other): 112 % of control
T/C (dose: 0.25 mg/kg/injection, schedule: Q01DX009 (sc), vehicle: saline): 93 % of control
T/C (dose: 0.3 mg/kg/injection, schedule: Q01DX009 (sc), vehicle: saline): 95 % of control
T/C (dose: 0.39 mg/kg/injection, schedule: Q07DX Z (sc), vehicle: other): 112 % of control
T/C (dose: 0.42 mg/kg/injection, schedule: Q01DX Z (sc), vehicle: other): 116 % of control
T/C (dose: 0.7 mg/kg/injection, schedule: Q01DX Z (sc), vehicle: other): 112 % of control
T/C (dose: 1.17 mg/kg/injection, schedule: Q01DX Z (sc), vehicle: other): 100 % of control
T/C (dose: 12.0 micrograms/kg/injection, schedule: Q01DX009 (ip), vehicle: saline): 101 % of control
T/C (dose: 12.0 micrograms/kg/injection, schedule: Q01DX009 (sc), vehicle: saline): 101 % of control
T/C (dose: 25.0 micrograms/kg/injection, schedule: Q01DX009 (ip), vehicle: saline): 102 % of control
T/C (dose: 25.0 micrograms/kg/injection, schedule: Q01DX009 (sc), vehicle: saline): 100 % of control
T/C (dose: 50.0 micrograms/kg/injection, schedule: Q01DX009 (ip), vehicle: saline): 98 % of control
T/C (dose: 50.0 micrograms/kg/injection, schedule: Q01DX009 (sc), vehicle: saline): 101 % of control
T/C (dose: 100.0 micrograms/kg/injection, schedule: Q01DX009 (ip), vehicle: saline): 113 % of control
T/C (dose: 100.0 micrograms/kg/injection, schedule: Q01DX009 (sc), vehicle: saline): 103 % of control and 119 % of control
T/C (dose: 200.0 micrograms/kg/injection, schedule: Q01DX009 (ip), vehicle: saline): 107 % of control
T/C (dose: 200.0 micrograms/kg/injection, schedule: Q01DX009 (sc), vehicle: saline): 114 % of control and 118 % of control
T/C (dose: 400.0 micrograms/kg/injection, schedule: Q01DX009 (sc), vehicle: saline): 112 % of control and 86 % of control
